Paper PMC6212438, “Vapor detection and discrimination with a panel of odorant receptors” (Nature Communications, 2018)

Molecular target: T1, Olfr1484 (Mus musculus, UniProt Q8VEU6)
T1 construct: gene Or5b122; full ORF with N-terminal Rho-tag (first 20 residues of human rhodopsin), Hana3A cells, co-expressed RTP1S
T1 sequence (Q8VEU6 1-315): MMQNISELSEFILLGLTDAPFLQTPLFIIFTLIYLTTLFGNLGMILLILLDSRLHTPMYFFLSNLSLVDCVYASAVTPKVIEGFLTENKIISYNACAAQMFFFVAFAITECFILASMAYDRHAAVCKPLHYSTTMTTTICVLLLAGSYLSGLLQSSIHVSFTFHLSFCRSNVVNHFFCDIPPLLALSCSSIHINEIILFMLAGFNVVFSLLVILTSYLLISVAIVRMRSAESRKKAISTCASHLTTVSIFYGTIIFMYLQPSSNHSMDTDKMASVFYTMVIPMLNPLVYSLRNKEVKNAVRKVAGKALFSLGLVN
Experiment: GloSensor cAMP luminescence in Hana3A cells
Type: cell-based
Conditions: agonist; vapor-phase stimulation, odorant diluted in mineral oil

O=C1CCCCC1 [cyclohexanone]
GloSensor cAMP luminescence in Hana3A cells: Olfr1484 to cyclohexanone (CH)
